Results on one compound are retold here after article PMC10977697 (PLOS ONE, 2024).

Where a SMILES comes first, the peptide text is derived from it.

The target in experiment [1] is T1, HtrA1 FL (Homo sapiens, UniProt Q92743).
T1 construct: HtrA1 (Q23-P480, 5654, Tni Baculovirus); made in house; host or cells: Trichoplusia ni (Tni) cells, baculovirus
It is filed as binding. To be noted: Biacore S200, 25°C; biotinylated HtrA1 FL on chip SA; 10 mM HEPES (8.0), 200mM NaCl, 0.25% CHAPS, 5% DMSO; steady state fitting; n/d = no binding; read-out: Kd(μM) SPR.

For another experiment, the system named is HtrA1. It counts as binding, human. To be noted: ratio of signal for target protein over BSA background.
The target in experiment [2] is T1, HtrA1 FL. Kind of experiment: HtrA1 enzyme assay with substrate H2-OPT. It counts as biochemical. The note with it: 20 μM DCP, 1 nM HtrA1, 5 μM H2-OPT, 15 min pre-incubation, 37°C, pH 8.0, 0.1% DMSO; average of three independent experiments (Fig 3B). The protocol: Human full-length HtrA1 (HtrA1 FL) was expressed in Trichoplusia ni cells and purified as described. Enzyme assays with the fluorescence-quenched synthetic substrate Mca-[…](Dnp)KK (H2-OPT) were carried out essentially as described (Eigenbrot 2012). DCP stock solutions in DMSO were diluted in 50 mM Tris-HCl, pH 8.0, 200 mM NaCl, 0.25% CHAPS (assay buffer) and incubated with HtrA1 in 96-well black optical bottom plates for 15 min at 37°C. A 10 mM stock solution of H2-OPT in DMSO was diluted with water, prewarmed at 37°C and then added to the DCP-enzyme mixtures. The final concentrations in the reaction mixtures were: 1 nM HtrA1, 20 μM DCP, 5 μM H2-OPT, 0.1% DMSO. Substrate cleavage was measured at 37°C on a SPECTRAmax M5 microplate reader (Molecular Devices) and the initial rates of cleavage determined. […] The enzyme activities were expressed as percent of control values (without DCP). The determined values represent the average ± S.D. of three independent experiments.

T1 sequence (Q92743 23-480): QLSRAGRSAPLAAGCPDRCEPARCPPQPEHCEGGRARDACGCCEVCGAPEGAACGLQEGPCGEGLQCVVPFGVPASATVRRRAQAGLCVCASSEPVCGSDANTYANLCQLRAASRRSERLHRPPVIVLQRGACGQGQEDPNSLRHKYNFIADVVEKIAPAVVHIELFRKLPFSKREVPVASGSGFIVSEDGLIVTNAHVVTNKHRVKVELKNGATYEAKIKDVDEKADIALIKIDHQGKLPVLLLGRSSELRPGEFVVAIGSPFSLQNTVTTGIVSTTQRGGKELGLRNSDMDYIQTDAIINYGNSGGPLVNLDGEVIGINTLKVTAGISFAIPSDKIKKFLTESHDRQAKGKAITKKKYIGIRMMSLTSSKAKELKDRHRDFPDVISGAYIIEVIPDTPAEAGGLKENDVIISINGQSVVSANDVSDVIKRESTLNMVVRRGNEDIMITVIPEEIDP

For the compound `CC[C@H](C)[C@@H]1NC(=O)[C@H](CCC(N)=O)NC(=O)[C@H](CCCNC(=N)N)NC(=O)[C@H](C(C)C)NC(=O)[C@@H]2CSSC[C@H](NC(=O)[C@H](CC(=O)O)NC(=O)[C@H](Cc3ccccc3)NC(=O)[C@H](C)N)C(=O)N[C@@H](CC(C)C)C(=O)NCC(=O)N[C@@H](CCC(N)=O)C(=O)N[C@H]3CSSC[C@H](NC(=O)[C@H](Cc4ccc(O)cc4)NC(=O)[C@H](Cc4c[nH]cn4)NC(=O)[C@H](CO)NC(=O)[C@H](CC(C)C)NC(=O)[C@H](CC(N)=O)NC(=O)[C@H]([C@@H](C)CC)NC(=O)[C@H](C(C)C)NC(=O)[C@H](CCCNC(=N)N)NC(=O)[C@H](Cc4c[nH]c5ccccc45)NC(=O)[C@H](C(C)C)NC1=O)C(=O)N[C@@H](CC(N)=O)C(=O)N[C@@H](CO)C(=O)N[C@@H](CO)C(=O)N[C@H](C(=O)N[C@H](C(=O)N[C@@H](CCCNC(=N)N)C(=O)O)[C@@H](C)O)CSSC[C@H](NC(=O)[C@H](CCCNC(=N)N)NC(=O)CNC3=O)C(=O)N[C@@H](CC(=O)O)C(=O)N[C@@H](Cc1ccccc1)C(=O)N[C@@H](Cc1c[nH]cn1)C(=O)N[C@@H](CCCCN)C(=O)N[C@@H](CC(C)C)C(=O)N[C@@H](CCC(N)=O)C(=O)N2` [HtrA1_AVR62] (HELM PEPTIDE1{A.F.D.C.L.G.Q.C.G.R.C.D.F.H.K.L.Q.C.V.R.Q.I.V.W.R.V.I.N.L.S.H.Y.C.N.S.S.C.T.R}$PEPTIDE1,PEPTIDE1,4:R3-18:R3|PEPTIDE1,PEPTIDE1,8:R3-33:R3|PEPTIDE1,PEPTIDE1,11:R3-37:R3$$$V2.0; N-terminus and C-terminus assumed), at HtrA1 FL [1], the Kd was above 15 µM. Besides, the S/N in the experiment with HtrA1 amounted to 19.5. Further, the “inhibition of HtrA1 activity” value against HtrA1 FL [2] is “more than 75%”.
